Tests used:
Type in all cases: functional
[1] = test system: Prevotella melaninogenica; experiment: Minimum inhibitory concentration required for the antibacterial activity against Bacillus melaninogenicus Heidelberg
Bacteroides fragilis = experiment: Minimum inhibitory concentration required for the antibacterial activity against Bacillus fragilis 06688
[2] = test system: Bacteroides thetaiotaomicron; experiment: Minimum inhibitory concentration required for the antibacterial activity against Bacillus thetaiotaomicron 235 Munchen
Phocaeicola vulgatus = experiment: Minimum inhibitory concentration required for the antibacterial activity against Bacillus valgatus Kr III
Clostridium perfringens = experiment: Minimum inhibitory concentration required for the antibacterial activity against Clostridium perfringens 24071
Escherichia coli [3] = experiment: Minimum inhibitory concentration required for the antibacterial activity against Escherichia coli 183/58
Escherichia coli [4] = experiment: Minimum inhibitory concentration required for the antibacterial activity against Escherichia coli 4322
Escherichia coli [5] = experiment: Minimum inhibitory concentration required for the antibacterial activity against Escherichia coli T A261
Klebsiella = experiment: Minimum inhibitory concentration required for the antibacterial activity against Klebsiella 1852
Micrococcus luteus = experiment: Minimum inhibitory concentration required for the antibacterial activity against Micrococcus luteus
[6] = test system: Peptostreptococcus anaerobius; experiment: Minimum inhibitory concentration required for the antibacterial activity against Peptostrept. anaer. Kr II
[7] = test system: Peptostreptococcus anaerobius; experiment: Minimum inhibitory concentration required for the antibacterial activity against Peptostrept. anaer. DSM 20357
[8] = test system: Peptoniphilus asaccharolyticus; experiment: Minimum inhibitory concentration required for the antibacterial activity against Peptococcus asacchar. DSM 20463
Anaerococcus prevotii = experiment: Minimum inhibitory concentration required for the antibacterial activity against Peptococcus prevotii DSM 20548
Pseudomonas aeruginosa = experiment: Minimum inhibitory concentration required for the antibacterial activity against Pseudomonas aeruginosa Walter
Proteus vulgaris = experiment: Minimum inhibitory concentration required for the antibacterial activity against Proteus vulgaris 9023
[9] = test system: Fusobacterium necrophorum; experiment: Minimum inhibitory concentration required for the antibacterial activity against Sphaerophorus necrophorus Kr
Staphylococcus aureus [10] = experiment: Minimum inhibitory concentration required for the antibacterial activity against Staphylococcus aureus 21b Belgium
Staphylococcus aureus [11] = experiment: Minimum inhibitory concentration required for the antibacterial activity against Staphylococcus aureus 25464
Staphylococcus aureus [12] = experiment: Minimum inhibitory concentration required for the antibacterial activity against Staphylococcus aureus 77 Innsbruck
Streptococcus pneumoniae = experiment: Minimum inhibitory concentration required for the antibacterial activity against Streptococcus pneumoniae 4959
Staphylococcus aureus [13] = experiment: Minimum inhibitory concentration required for the antibacterial activity against Staphylococcus aureus 17N Munchen

`C[C@@H](O)[C@H]1C(=O)N2C(C(=O)[O-])=C(C(C)(C)C)O[C@H]12.[K+]` showed an MIC [1] of 4 µg/mL, an MIC (Bacteroides fragilis) of 2 µg/mL and an MIC [2] of 4 µg/mL. It also gave an MIC (Phocaeicola vulgatus) of 1 µg/mL, an MIC (Clostridium perfringens) of 0.5 µg/mL and an MIC (Escherichia coli [3]) of 1 µg/mL. The MIC (Escherichia coli [4]) was 2 µg/mL, the MIC (Escherichia coli [5]) was 2 µg/mL and the MIC (Klebsiella) was 16 µg/mL. The MIC (Micrococcus luteus) was no more than 0.06 µg/mL, the MIC [6] was 0.25 µg/mL and the MIC [7] was 1 µg/mL. For the same molecule, the MIC [8] was 0.5 µg/mL, the MIC (Anaerococcus prevotii) was 2 µg/mL and the MIC (Pseudomonas aeruginosa) was greater than 128 µg/mL. For the same molecule, the MIC (Proteus vulgaris) was 1 µg/mL, the MIC [9] was 1 µg/mL and the MIC (Staphylococcus aureus [10]) was 12.5 µg/mL. The MIC (Staphylococcus aureus [11]) was 3.12 µg/mL, the MIC (Staphylococcus aureus [12]) was no more than 0.78 µg/mL and the MIC (Streptococcus pneumoniae) was 0.25 µg/mL. For the same molecule, the MIC (Staphylococcus aureus [13]) was 1.56 µg/mL.

— ChEMBL document CHEMBL1127134, “Synthesis and antibacterial activity of (1R,5R,6R)-2-tert-butyl-6-(1-hydroxyethyl)oxapenem-3-carboxylic acid” (1993)
